# Entries after “also recorded” stand apart in the source; their conditions may differ. Read-outs that look alike come from different tables or passages of the source.
# Experiments:
# acetylcholinesterase = acetylcholinesterase (Homo sapiens (Human), UniProt P22303); test: biochemical; assay type: biochemical; conditions: for potency on acetylcholinesterase compared with positive control drug donepezil hydrochloride: enzymology level; for IC50: read-out: IC50 (nM), inhibition activity on acetylcholinesterase
# [1] = tested on: learning and memory disorder of mice induced by scopolamine; test: Morris water maze test, senile dementia mice model induced by scopolamine; assay type: in vivo
# malonaldehyde (MDA) = test: Biochemical indicators of brain tissues (MDA assay) in scopolamine mice; assay type: in vivo; conditions: 5 mg/kg
# Protocol: After the behavior test was complete, the mice were sacrificed, brain tissues were collected (operated on an ice plate) and prepared into 10% of tissue homogenate with pre-cooled physiological saline, centrifuged (3000 rpm, 10 min), and the supernatant was subjected to malonaldehyde (MDA) assay following the kits.
# in vivo = conditions: mouse, in vivo
# Protocol: (§1) Firstly, preliminary tests were performed, in order to determine the concentration of each compound, with just 0% mortality or just 100% mortality, before starting the formal tests. The animals were divided into groups by weight, various dosages of drugs were administered between 0%-100%. Dosage volume: 10 ml/kg. Dosage manner: intravenous injection or intragastric administration.
# (§2) The animals were divided into 6 groups, with 5 animals per group.
# (§3) The animals were divided into 6 groups, with 5 animals per group. […] Each animal was fasted 12 h before administration.
# (§4) The animals were divided into 5 groups, with 5 animals per group.
# (§5) The animals were divided into 5 groups, with 5 animals per group. […] Each animal was fasted 12 h before administration.
# (§6) The toxic reaction and death of the animals after administration were observed, and mortality was counted. The results were analyzed with LD50 data processing software.
# white mice = test: in vivo; conditions: for Mortality (%) / Number of death: 5 animals
# Protocol: as §1, §2, §3, §4, §5, §6
# [2] = rat, in vivo, po, 5 mg/kg
# Protocol: 0.3 ml of whole blood was collected at corresponding time point, anticoagulating with heparin, centrifuged at 4000 rpm for 10 min, the plasma was separated, 50 μL the plasma sample of rats was collected, 100 μL acetonitrile (containing 0.1% formic acid) was added, mixed under vortex for 1 min, centrifuged (12000 rpm) for 10 min, the supernatant was collected, analyzed with liquid chromatography-mass spectrometer, the area of peaks were recorded and used for the calculation of blood drug concentration, and the drug-time curve was plotted.
# [3] = Table 4, 5 mg/kg intragastric, scopolamine 1 mg/kg
# [4] = Intragastric administration 122.88 mg/kg
# [5] = Intragastric administration 153.60 mg/kg
# [6] = Intragastric administration 240.00 mg/kg
# [7] = Intragastric administration 300.00 mg/kg
# [8] = Intravenous injection 16.40 mg/kg
# [9] = Intravenous injection 18.23 mg/kg
# [10] = Intravenous injection 20.25 mg/kg
# [11] = Intravenous injection 23.04 mg/kg
# [12] = Intravenous injection 25.60 mg/kg
# Chain of acetylcholinesterase (P22303 32-614, species assumed): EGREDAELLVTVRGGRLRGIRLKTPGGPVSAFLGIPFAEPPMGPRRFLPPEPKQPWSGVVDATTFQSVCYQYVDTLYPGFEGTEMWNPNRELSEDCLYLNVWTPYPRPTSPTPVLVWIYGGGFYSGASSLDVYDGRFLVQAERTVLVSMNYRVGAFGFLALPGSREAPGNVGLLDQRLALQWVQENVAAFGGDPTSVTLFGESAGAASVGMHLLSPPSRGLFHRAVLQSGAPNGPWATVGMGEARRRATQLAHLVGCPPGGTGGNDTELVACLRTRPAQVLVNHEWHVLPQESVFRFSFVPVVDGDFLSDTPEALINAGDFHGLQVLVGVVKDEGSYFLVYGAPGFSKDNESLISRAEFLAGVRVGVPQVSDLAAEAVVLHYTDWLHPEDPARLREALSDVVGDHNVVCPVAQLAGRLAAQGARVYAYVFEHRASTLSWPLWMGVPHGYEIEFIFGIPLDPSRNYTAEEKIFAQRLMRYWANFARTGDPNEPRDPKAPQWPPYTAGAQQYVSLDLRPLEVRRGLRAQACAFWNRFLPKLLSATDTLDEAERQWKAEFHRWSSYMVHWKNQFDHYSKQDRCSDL
structure (smiles),measurement,setting,value
"O=C1c2cc3c(cc2C2(CC2)N1CCC1CCN(Cc2ccccn2)CC1)OCO3 [Compound I-29, 6-[2-[1-(2-pyridylmethyl)-4-piperidyl]ethyl]spiro[[1,3]dioxolo[4,5-f]isoindole-7,1′-cyclopropane]-5-one]",inhibition activity on acetylcholinesterase in vitro relative to donepezil hydrochloride,acetylcholinesterase; in vitro,about 10%
same,potency on acetylcholinesterase compared with positive control drug donepezil hydrochloride,acetylcholinesterase; in vitro,even lower
same,IC50,acetylcholinesterase,903 nM
same,effect on learning and memory disorder of mice induced by scopolamine,"[1]; Morris water maze, in comparison with model group / donepezil hydrochloride group",stronger effects of improving learning and memory
same,latent period day 1,[1]; [3],59.3 ± 2.7 s
same,latent period day 2,[1]; [3],54.6 ± 12.5 s
same,latent period day 3,[1]; [3],48.0 ± 15.8 s
same,latent period day 4,[1]; [3],46.0 ± 16.3 s
same,latent period day 5,[1]; [3],40.4 ± 21.6 s
same,times of crossing platform,[1]; [3],1.5 ± 1.4
same,content of MDA in brains / antioxidation effect,malonaldehyde (MDA),significant antioxidation effect
same,MDA(nmol/mgprot),malonaldehyde (MDA); brain tissue homogenate,6.66 ± 1.75 nmol/mgprot
"Cl.O=C1c2cc3c(cc2C2(CC2)N1CCC1CCN(Cc2ccccc2)CC1)OCO3 [Compound I-34, 6-[2-(1-benzyl-4-piperidyl)ethyl]spiro[[1,3]dioxolo[4,5-f]isoindole-7,1′-cyclopropane]-5-one hydrochloride]",potency on acetylcholinesterase compared with positive control drug donepezil hydrochloride,"acetylcholinesterase; in vitro, hydrochloride",slightly lower potency than the positive control drug; also recorded: comparable inhibition activity on acetylcholinesterase with donepezil hydrochloride
same,IC50,acetylcholinesterase,197 nM
same,LD50,in vivo; iv,20.1 mg/kg
same,LD50,in vivo; po,171 mg/kg
same,Mortality (%),white mice; [4],0%
same,Number of death,white mice; [4],0
same,Mortality (%),white mice; [5],40%
same,Number of death,white mice; [5],2
same,Mortality (%),white mice; [6],80%
same,Number of death,white mice; [6],4
same,Mortality (%),white mice; [7],100%
same,Number of death,white mice; [7],5
same,Mortality (%),white mice; [8],0%
same,Number of death,white mice; [8],0
same,Mortality (%),white mice; [9],20%
same,Number of death,white mice; [9],1
same,Mortality (%),white mice; [10],60%
same,Number of death,white mice; [10],3
same,Mortality (%),white mice; [11],80%
same,Number of death,white mice; [11],4
same,Mortality (%),white mice; [12],100%
same,Number of death,white mice; [12],5
same,"median lethal dose by oral and intravenous administration, times of those of donepezil hydrochloride",white mice; oral and intravenous,4-7 times
same,toxicity compared with donepezil hydrochloride,white mice; preliminary acute toxicity tests,lower toxicity than donepezil hydrochloride
"O=C1c2cc3c(cc2C2(CC2)N1CCC1CCN(Cc2ccccn2)CC1)OCO3 [Compound I-35, 6-[2-[1-(2-pyridylmethyl)-4-piperidyl]ethyl]spiro[[1,3]dioxolo[4,5-f]isoindole-7,1′-cyclopropane]-5-one phosphate]",IC50,acetylcholinesterase; modified Ellman method,601 nM
same,MRT(0-t),[2],2.343 ± 0.206
same,MRT(0-∞),[2],2.483 ± 0.265
same,t1/2z,[2],1.965 ± 0.296
